This is an account of results in publication PMC9177545, “3-oxo-C12:2-HSL, quorum sensing molecule from human intestinal microbiota, inhibits pro-inflammatory pathways in immune cells via bitter taste receptors” (Scientific Reports, 2022).

For test [1], the system named is Caco-2/TC7. Set-up: method as in PMID 30157234. The note with it: Caco-2/TC7 stimulated by IL-1β ref 17; cited from earlier work.
In test [2] the target is T1, TAS2R38 (Homo sapiens, UniProt P59533).
T1 construct: first 45 amino acids of rat somatostatin type 3 receptor (SSTR3) (N); expressed in transfected cells; host or cells: HEK293T stably expressing chimeric Gα16gust44, transiently co-transfected with the pcDNA4-TAS2R vector and pCMV-GCaMP5G
T1 sequence (P59533 1-333): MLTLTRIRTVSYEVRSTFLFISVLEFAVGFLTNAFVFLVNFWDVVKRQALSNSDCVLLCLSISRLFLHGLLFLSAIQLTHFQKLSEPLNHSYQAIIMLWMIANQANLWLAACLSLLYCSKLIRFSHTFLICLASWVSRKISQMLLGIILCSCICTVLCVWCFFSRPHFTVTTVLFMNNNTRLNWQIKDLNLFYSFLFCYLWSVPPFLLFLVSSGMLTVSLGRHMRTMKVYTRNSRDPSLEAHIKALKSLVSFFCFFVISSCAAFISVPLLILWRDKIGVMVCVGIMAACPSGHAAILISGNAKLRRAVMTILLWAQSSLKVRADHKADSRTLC
In words: Bitter taste receptor screening, calcium mobilization in HEK293T cells. The class given is cell-based. As for the experimental part: (§1) Bitter taste receptor cDNA were cloned into the pcDNA4 mammalian expression vector (Invitrogen) using full coding receptor sequences reported on UniProt database. The synthetic constructs were codon optimized (Genewiz) and combine the first 45 amino acids of rat somatostatin type 3 receptor at the amino terminus to improve plasma membrane targeting of the receptors in the heterologous system. The FLAG epitope was added to the carboxy terminus without interfering with receptor functionality and can be used for immunocytochemistry. Calcium-mobilization assays were performed using human embryonic kidney cells (HEK293T) stably transfected with chimeric Gα16gust44 protein[78]. Cells were seeded in black, poly-D-lysine coated 96-well plates at a density of 35,000 cells/100 µL in high glucose DMEM supplemented with 10% dialysed fetal bovine serum and 1% penicillin/streptomycin. Twenty-four hours later, the cells were transiently co-transfected using Lipofectamine 2000 (Life Technologies) with one of the TAS2R synthetic optimized vectors or empty expression plasmid, as a negative control, and the pCMV-GCaMP5G construct (Addgene #31788) coding for a genetically encoded calcium indicator[79],[80]. Twenty-four hours after transfection, cells were washed twice with C1 buffer (130 mM NaCl, 5 mM KCl, 10 mM HEPES, 2 mM CaCl2, 5 mM sodium pyruvate, pH7.4). 3-oxo-C12:2-HSL was solved in DMSO and further diluted in C1 buffer. Next, the cells were placed in a fluorometric imaging plate reader (Flexstation® 3, Molecular Devices) and stimulated with automatic injection of increasing concentrations of AHLs. Calcium responses leading to increase in fluorescence were monitored at 510 nm after excitation at 488 nm. Experiments were performed in duplicates and repeated at least four times. The recorded calcium levels of each wells receiving the same stimulus were averaged, response of mock-transfected cells were subtracted from receptor-transfected cells and net signals were normalized to background fluorescence (F/F0, F0 fluorescence light before stimulus application). The resulting dose–response curves of the averaged fluorescent signal amplitudes against the logarithm of the agonist concentration were fitted using Sigma Plot software. For data analysis, the four-parameter logistic equation [f(x) = min + (max − min)/(1 + (x/EC50)nH)] was used to calculate the half-maximal effective concentrations (EC50 values).

The target of test [3] is T2, TAS2R8 (Homo sapiens, UniProt Q9NYW2).
T2 construct: first 45 amino acids of rat somatostatin type 3 receptor (SSTR3) (N); expressed in transfected cells; host or cells: HEK293T stably expressing chimeric Gα16gust44, transiently co-transfected with the pcDNA4-TAS2R vector and pCMV-GCaMP5G
T2 sequence (Q9NYW2 1-309): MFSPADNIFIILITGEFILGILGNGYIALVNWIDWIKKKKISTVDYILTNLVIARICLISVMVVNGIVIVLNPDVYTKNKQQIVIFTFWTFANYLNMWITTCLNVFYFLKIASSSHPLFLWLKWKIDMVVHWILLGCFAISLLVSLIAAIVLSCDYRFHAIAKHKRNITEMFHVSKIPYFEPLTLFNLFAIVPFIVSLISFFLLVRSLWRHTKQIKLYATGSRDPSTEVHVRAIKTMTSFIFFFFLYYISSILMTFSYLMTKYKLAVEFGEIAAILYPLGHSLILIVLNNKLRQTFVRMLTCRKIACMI
The test is described as above. The test is classed as cell-based. The protocol:
as §1

Test [4] deals with T3, TAS2R10 (Homo sapiens, UniProt Q9NYW0).
T3 construct: first 45 amino acids of rat somatostatin type 3 receptor (SSTR3) (N); expressed in transfected cells; host or cells: HEK293T stably expressing chimeric Gα16gust44, transiently co-transfected with the pcDNA4-TAS2R vector and pCMV-GCaMP5G
T3 sequence (Q9NYW0 1-307): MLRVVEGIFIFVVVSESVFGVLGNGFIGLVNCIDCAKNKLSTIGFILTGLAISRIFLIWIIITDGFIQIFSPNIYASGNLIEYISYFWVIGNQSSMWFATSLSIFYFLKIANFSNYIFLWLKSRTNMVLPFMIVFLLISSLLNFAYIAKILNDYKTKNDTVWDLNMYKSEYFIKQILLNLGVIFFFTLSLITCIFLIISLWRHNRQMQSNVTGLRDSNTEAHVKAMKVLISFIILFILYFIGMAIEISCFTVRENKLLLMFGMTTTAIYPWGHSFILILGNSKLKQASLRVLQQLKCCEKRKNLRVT
The test is described as above. The class given is cell-based. As for the experimental part: as §1

In test [5] the target is T4, TAS2R14 (Homo sapiens, UniProt Q9NYV8).
T4 construct: first 45 amino acids of rat somatostatin type 3 receptor (SSTR3) (N); expressed in transfected cells; host or cells: HEK293T stably expressing chimeric Gα16gust44, transiently co-transfected with the pcDNA4-TAS2R vector and pCMV-GCaMP5G
T4 sequence (Q9NYV8 1-317): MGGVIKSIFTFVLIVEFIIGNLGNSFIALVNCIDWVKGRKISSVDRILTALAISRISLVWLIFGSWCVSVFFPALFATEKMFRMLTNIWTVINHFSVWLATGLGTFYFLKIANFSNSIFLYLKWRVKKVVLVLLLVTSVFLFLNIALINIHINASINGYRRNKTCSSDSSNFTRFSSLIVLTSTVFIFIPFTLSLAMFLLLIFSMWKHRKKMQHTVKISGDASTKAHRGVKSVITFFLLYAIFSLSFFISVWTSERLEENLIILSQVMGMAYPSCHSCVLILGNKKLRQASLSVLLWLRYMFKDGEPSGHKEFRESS
The description is as above. The class given is cell-based. The note with it: calcium response F/F0. As for the experimental part:
as §1

Test [6] has as its target T5, TAS2R13 (Homo sapiens, UniProt Q9NYV9).
T5 construct: first 45 amino acids of rat somatostatin type 3 receptor (SSTR3) (N); expressed in transfected cells; host or cells: HEK293T stably expressing chimeric Gα16gust44, transiently co-transfected with the pcDNA4-TAS2R vector and pCMV-GCaMP5G
T5 sequence (Q9NYV9 1-303): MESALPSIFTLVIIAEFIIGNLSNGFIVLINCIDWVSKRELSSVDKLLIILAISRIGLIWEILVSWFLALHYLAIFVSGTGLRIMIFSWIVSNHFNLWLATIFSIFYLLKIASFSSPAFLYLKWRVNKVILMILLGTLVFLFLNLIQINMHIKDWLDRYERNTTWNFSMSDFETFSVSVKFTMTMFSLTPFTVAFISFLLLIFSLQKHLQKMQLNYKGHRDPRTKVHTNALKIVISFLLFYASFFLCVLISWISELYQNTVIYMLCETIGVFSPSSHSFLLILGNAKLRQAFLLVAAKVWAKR
The description is as above. The test is classed as cell-based. As for the experimental part: as §1

Turning to 3-oxo-C12:2-HSL, the IL-8 production result in test [1] is on record as “decreased”. The maximum amplitude was 0.05 ± 0.01 in test [2] (calcium response F/F0); “around 0.45” in test [3] (calcium response F/F0); 0.13 ± 0.03 in test [4] (calcium response F/F0); “around 0.45” in test [5]; 0.59 ± 0.03 in test [6] (calcium response F/F0). In addition, the EC50 is 476 ± 125 µM in test [2] (calcium response, 0–1000 µM); 333 ± 27 µM in test [3] (calcium response, 0–1000 µM); 438 ± 120 µM in test [4] (calcium response, 0–1000 µM); 884 ± 41 µM in test [6] (calcium response, 0–1000 µM).
